Earlier results in article PMC3986712, “Diclofenac Salts. V. Examples of Polymorphism among Diclofenac Salts with Alkyl-hydroxy Amines Studied by DSC and HSM” (Pharmaceutics, 2010).

Settings: free base (counterion), no reference given

pKa: 7.76
SMILES: NC(CO)(CO)CO [TRIS base, Tris-methylol aminomethane]
